Results from article PMC11859905, “Flavonoids as Potential Modulators of Pancreatic Lipase Catalytic Activity” (Pharmaceutics, 2025).
Where two headings read alike, the source gives them in different places. Values belong to the compound of their own block, whether it stands above or below them.

Columns and labels:
human pancreatic lipase = biological target: T1, human pancreatic lipase (Homo sapiens, UniProt P16233); assay: In vitro assay using human pancreatic lipase (4-MUO hydrolysis, fluorometric); format: biochemical; conditions: for IC50: human PL 2 U/mL, 4-MUO 0.05 mM, mean ± SEM; for inhibitory activity against HPL (in words): at the maximum concentration that could be tested;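 for all read-outs here: Read-out is the initial rate of fluorescent 4-MU release as HPL cleaves the 4-MUO substrate, a rate that scales with the amount of enzyme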
T1 construct: PL from the human pancreas (triacylglycerol acyl hydrolase, EC 3.1.1.3); from tissue; host or cells: human pancreas
T1 sequence (P16233 17-465): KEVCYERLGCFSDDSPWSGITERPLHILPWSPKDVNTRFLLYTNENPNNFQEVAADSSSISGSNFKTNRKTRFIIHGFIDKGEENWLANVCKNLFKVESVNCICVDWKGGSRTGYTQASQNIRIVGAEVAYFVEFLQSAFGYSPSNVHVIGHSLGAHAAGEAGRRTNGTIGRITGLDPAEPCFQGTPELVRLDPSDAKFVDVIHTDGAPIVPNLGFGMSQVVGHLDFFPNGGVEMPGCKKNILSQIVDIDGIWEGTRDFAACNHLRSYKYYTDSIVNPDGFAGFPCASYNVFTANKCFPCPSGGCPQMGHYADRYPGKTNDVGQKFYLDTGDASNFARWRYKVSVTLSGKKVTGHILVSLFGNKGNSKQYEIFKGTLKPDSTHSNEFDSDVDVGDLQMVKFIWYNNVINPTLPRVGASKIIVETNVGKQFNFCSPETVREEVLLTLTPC

[1] = biological target: T2, porcine pancreatic lipase (Sus scrofa, UniProt P00591); assay: In vitro assay using porcine pancreatic lipase (4-MUO hydrolysis, fluorometric); conditions: for inhibition at 100 µM / inhibition at 25 µM / inhibition at 50 µM: read-out: PL Inhibition (%) ± SEM, Porcine; for inhibitory activity against PPL (in words): at the maximum concentration that could be tested;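 for all read-outs here: product 4-methylumbeliferone formation tracked fluorometrically, catalytic rate from RFU slope over the 10–30 min window, compounds checked beforehand for own fluorescence, at least three independent experiments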
T2 sequence (P00591 1-450): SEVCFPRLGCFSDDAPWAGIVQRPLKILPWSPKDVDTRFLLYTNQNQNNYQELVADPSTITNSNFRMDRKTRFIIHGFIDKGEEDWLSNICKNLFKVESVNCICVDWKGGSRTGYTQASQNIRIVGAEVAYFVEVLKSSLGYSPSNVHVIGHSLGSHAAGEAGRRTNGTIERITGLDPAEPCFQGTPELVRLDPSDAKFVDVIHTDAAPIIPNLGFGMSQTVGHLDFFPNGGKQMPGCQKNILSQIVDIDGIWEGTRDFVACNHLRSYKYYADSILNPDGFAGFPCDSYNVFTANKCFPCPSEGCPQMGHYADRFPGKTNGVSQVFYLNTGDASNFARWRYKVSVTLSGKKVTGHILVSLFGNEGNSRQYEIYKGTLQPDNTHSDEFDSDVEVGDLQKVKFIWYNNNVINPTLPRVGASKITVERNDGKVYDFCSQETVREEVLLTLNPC

[2] = read-out: PL Inhibition (%) ± SEM, Human
[3] = at 50 μM, read-out: PL Inhibition (%) ± SEM, Human

Compound: Oc1cc(O)c2c(c1)OC(c1cc(O)c(O)c(O)c1)C(O)C2 (single isomer, unassigned; (-)) [Flavonoid 40, (–)-Epigallocatechin]
inhibition at 100 µM (human pancreatic lipase; [2]): < 30% | inhibition at 100 µM [1]: < 30%

inhibition at 100 µM (human pancreatic lipase; [2]): < 30% | inhibition at 100 µM [1]: < 30%
Compound: O=c1cc(-c2ccccc2)oc2ccccc12 [Flavonoid 1, Flavone]

inhibition at 100 µM (human pancreatic lipase; [2]): < 30% | inhibition at 100 µM [1]: < 30%
Compound: O=c1cc(-c2cccc(O)c2)oc2ccccc12 [Flavonoid 2]

inhibition at 25 µM (human pancreatic lipase; [2]): < 30% | inhibition at 25 µM [1]: < 30%
Compound: O=c1cc(-c2ccc(O)cc2)oc2ccccc12 [Flavonoid 3]

inhibition at 100 µM (human pancreatic lipase; [2]): < 30% | inhibition at 100 µM [1]: < 30%
Compound: O=c1cc(-c2ccc(O)c(O)c2)oc2ccccc12 [Flavonoid 4]

inhibition at 50 µM (human pancreatic lipase; [3]): < 30% | inhibition at 50 µM [1]: < 30%
Compound: O=c1cc(-c2ccccc2)oc2cccc(O)c12 [Flavonoid 5]

inhibition at 25 µM (human pancreatic lipase; [2]): 32.3 ± 0.1% | inhibition at 25 µM [1]: < 30%
Compound: O=c1cc(-c2cccc(O)c2)oc2cccc(O)c12 [Flavonoid 6]

inhibition at 25 µM (human pancreatic lipase; [2]): < 30% | inhibition at 25 µM [1]: < 30%
Compound: O=c1cc(-c2ccc(O)cc2)oc2cccc(O)c12 [Flavonoid 7]

Compound: O=c1cc(-c2ccc(O)c(O)c2)oc2cccc(O)c12 [Flavonoid 8]
inhibition at 50 µM (human pancreatic lipase; [2]): < 30% | inhibition at 50 µM [1]: 46 ± 2%

Compound: O=c1cc(-c2ccccc2)oc2cc(O)ccc12 [Flavonoid 9]
inhibition at 50 µM (human pancreatic lipase; read-out: PL Inhibition (%) ± SEM, Human, at 50 μM): < 30% | inhibition at 50 µM [1]: < 30%

inhibition at 100 µM (human pancreatic lipase; [2]): < 30% | inhibition at 100 µM [1]: < 30%
Compound: O=c1cc(-c2cccc(O)c2)oc2cc(O)ccc12 [Flavonoid 10]

inhibition at 50 µM (human pancreatic lipase; [3]): < 30% | inhibition at 50 µM [1]: < 30%
Compound: O=c1cc(-c2ccccc2)oc2cc(O)cc(O)c12 [Flavonoid 13, Chrysin]

IC50 (human pancreatic lipase): 54 ± 5 µM | IC50 [1]: 73 ± 7 µM
Compound: O=c1cc(-c2cccc(O)c2)oc2cc(O)cc(O)c12 [Flavonoid 14]

IC50 (human pancreatic lipase): 75 ± 2 µM | IC50 [1]: 41 ± 1 µM
Compound: O=c1cc(-c2ccc(O)cc2)oc2cc(O)cc(O)c12 [Flavonoid 15, Apigenin]

inhibition at 50 µM (human pancreatic lipase; [3]): 54 ± 2% | IC50 [1]: 32 ± 2 µM
Compound: O=c1cc(-c2ccc(O)c(O)c2)oc2cc(O)cc(O)c12 [Flavonoid 16, Luteolin]

inhibition at 100 µM (human pancreatic lipase; [2]): < 30% | inhibition at 100 µM [1]: < 30%
Compound: O=c1c(-c2ccc(O)cc2)coc2cc(O)cc(O)c12 [Flavonoid 17, Genistein]
inhibitory activity against HPL (in words) (human pancreatic lipase): did not show significant inhibitory activity | inhibitory activity against PPL (in words) [1]: did not show significant inhibitory activity

inhibition at 50 µM (human pancreatic lipase; [3]): 44 ± 5% | inhibition at 50 µM [1]: 41 ± 4%
Compound: O=c1c(O)c(-c2ccc(O)c(O)c2)oc2ccccc12 [Flavonoid 18]
inhibitory activity against HPL (in words) (human pancreatic lipase): did not show significant inhibitory activity | inhibitory activity against PPL (in words) [1]: did not show significant inhibitory activity

inhibition at 50 µM (human pancreatic lipase; [3]): < 30% | inhibition at 50 µM [1]: 41 ± 1%
Compound: O=c1c(O)c(-c2ccccc2)oc2cc(O)cc(O)c12 [Flavonoid 23, Galangin]

inhibition at 100 µM (human pancreatic lipase; [2]): 39 ± 3% | IC50 ([1]; read-out: IC50 (μM) ± SEM, Porcine, porcine PL 0.04 mg/mL, 4-MUO 0.05 mM, mean ± SEM): 79 ± 6 µM
Compound: O=c1c(O)c(-c2ccc(O)cc2)oc2cc(O)cc(O)c12 [Flavonoid 24, Kaempferol]
